The term Ki denotes a dissociation constant, usually derived from enzyme kinetics or from competition with a known ligand. For orientation: EC50 means the concentration giving half of the maximal effect.

Structures are written as SMILES. Numbered stars: 1 amine (or outer) side, 2 acyl side, 3 side chain; on linkers, the order of the positions; unused ones are H or OH. Square brackets hold non-standard residues; d marks the D form. Side chains are listed from the residue outwards. Peptide text beside a SMILES is read from it. * marks the point of attachment. C20 diacid = O=C(O)CCCCCCCCCCCCCCCCCCC(=O)*; C18 diacid = O=C(O)CCCCCCCCCCCCCCCCC(=O)*; γGlu = O=C(O)[C@H](CCC(=O)[*:2])N[*:1]; αMeL = CC(C)C[C@](C)(N)C(=O)O; AEEA = NCCOCCOCC(=O)O; Aib = CC(C)(N)C(=O)O

The target in one experiment is T1, human Gcg receptor (Homo sapiens, UniProt P47871).
T1 construct: expressed in transfected cells; crude membranes
In words: [125I]-Glucagon binding (SPA), human Gcg receptor. Conditions: read-out: hGLcgR Ki, nM (SEM, n). The method, boiled down:
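Scintillation counts are taken after membranes and WGA beads incubate and settle for 12 hours at room temperature. Buffer is 25 mM HEPES, pH 7.4, with CaCl2, MgCl2, bacitracin and Tween-20. Ki values, from four-parameter IC50 fits, are geometric means over independent days.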

In another experiment the target is T2, human GIP receptor (Homo sapiens, UniProt P48546).
T2 construct: expressed in transfected cells; crude membranes
T2 sequence (P48546 22-466): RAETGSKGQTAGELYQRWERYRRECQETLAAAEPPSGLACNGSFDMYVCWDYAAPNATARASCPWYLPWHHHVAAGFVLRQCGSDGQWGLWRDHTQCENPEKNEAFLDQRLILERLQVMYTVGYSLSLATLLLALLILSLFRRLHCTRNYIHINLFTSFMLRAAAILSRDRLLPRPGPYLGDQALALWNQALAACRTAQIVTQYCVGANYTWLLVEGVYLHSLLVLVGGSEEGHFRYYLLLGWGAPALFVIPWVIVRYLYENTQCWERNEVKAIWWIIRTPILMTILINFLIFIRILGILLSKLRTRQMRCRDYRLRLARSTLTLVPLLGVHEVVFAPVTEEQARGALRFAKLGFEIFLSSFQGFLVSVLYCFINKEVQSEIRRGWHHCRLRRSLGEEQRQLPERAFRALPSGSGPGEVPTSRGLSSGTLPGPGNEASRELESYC
In words: [125I]-GIP binding (SPA), human GIP receptor. The following applies: read-out: hGIPR Ki, nM (SEM, n).

For experiment [1], the target named is human GLP-1 receptor (GLP-1R) (Homo sapiens, UniProt P43220). The experiment in a line: cAMP pharmacological functional assay in presence of casein, hGLP-1R. In kind it is cell-based. The following applies: HEK293 cells expressing hGLP-1R, 0.1% Casein, geometric mean; read-out: hGLP1R cAMP Rel EC50 nM (SEM, n).
The target of experiment [2] is T3, gastric inhibitory peptide receptor (GIPR) (Homo sapiens, UniProt P48546).
T3 sequence (P48546 22-466): T2 sequence (P48546 22-466)
In words: cAMP pharmacological functional assay in presence of casein, hGIPR. In kind it is cell-based. The following applies: HEK293 cells expressing hGIPR, 0.1% Casein, geometric mean; read-out: hGIPR cAMP Rel EC50 nM (SEM, n).

For experiment [3], the target named is T4, human GLP-1R (Homo sapiens, UniProt P43220). In words: [125I]-GLP-1 binding (SPA), human GLP-1 receptor. Further details: expressed in transfected cells; crude membranes. The following applies: read-out: hGLP1R Ki, (nM) (SEM, n). The method, boiled down:
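Assay buffer: HEPES 25 mM, pH 7.4, CaCl2 2.5 mM, MgCl2 1 mM, with EDTA-free protease inhibitors. Receptor came from crude cell membranes prepared by homogenization and centrifugation at 4° C. IC50s came from four-parameter fits (maximum, minimum, IC50, Hill slope) and were expressed as Ki geometric means with SEM.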

The target in experiment [4] is T4, human GLP-1R. In words: GLP-1R HEK293 cell membrane [35S]GTPγS binding assay. The class given is biochemical. Details: expressed in transfected cells; host or cells: HEK293 cells expressing human GLP-1R; membranes. The following applies: HEK293 cell membranes expressing human GLP-1R, [35S]GTPγS binding; read-out: hGLP1R GTPgS Rel EC50 nM (SEM, n). As for the experimental part:
The GLP-1 receptor is a G-protein coupled receptor that increases GTP-bound Gas upon ligand induced receptor activation. The potency of peptides to stimulate-GLP-1R induced activation of Gac is determined using preparations of purified membranes from HEK293 cells expressing the human GLP-1R. […] The test peptides are solubilized in DMSO and diluted in reaction buffer containing 5 μg of membrane in 20 mM HEPES pH 7.4, 50 mM NaCl, 5 mM MgCl2, 40 μg/ml saponin, 0.1% BSA, and […] ^35S-labeled GTPTS for 30 minutes at room temperature. Reactions are terminated by addition of 0.2% Nonidet β-40 detergent containing rabbit anti-Gas polyclonal antibody and 0.5 mg of anti-rabbit polyvinyltoluene beads. Mixtures are developed for 30 minutes, centrifuged at 80×g for 10 minutes, and counted for 1 minute/well using a MicroBeta TriLux instrument. Peptide concentration-response curves are fit to a four-parameter logistic model to calculate potency as an EC50.

T4 sequence (P43220 24-463): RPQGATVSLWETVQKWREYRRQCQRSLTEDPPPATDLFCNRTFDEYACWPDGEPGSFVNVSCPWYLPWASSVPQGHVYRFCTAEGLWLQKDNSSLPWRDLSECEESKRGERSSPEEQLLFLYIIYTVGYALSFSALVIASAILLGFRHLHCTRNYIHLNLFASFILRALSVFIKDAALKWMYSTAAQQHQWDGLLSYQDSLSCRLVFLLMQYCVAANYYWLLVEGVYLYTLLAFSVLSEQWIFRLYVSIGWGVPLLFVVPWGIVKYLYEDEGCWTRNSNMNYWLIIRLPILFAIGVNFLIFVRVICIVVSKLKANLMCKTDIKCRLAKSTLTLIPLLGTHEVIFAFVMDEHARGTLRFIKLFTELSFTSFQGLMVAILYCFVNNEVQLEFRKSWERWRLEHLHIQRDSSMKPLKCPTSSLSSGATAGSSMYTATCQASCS
T1 sequence (P47871 26-477): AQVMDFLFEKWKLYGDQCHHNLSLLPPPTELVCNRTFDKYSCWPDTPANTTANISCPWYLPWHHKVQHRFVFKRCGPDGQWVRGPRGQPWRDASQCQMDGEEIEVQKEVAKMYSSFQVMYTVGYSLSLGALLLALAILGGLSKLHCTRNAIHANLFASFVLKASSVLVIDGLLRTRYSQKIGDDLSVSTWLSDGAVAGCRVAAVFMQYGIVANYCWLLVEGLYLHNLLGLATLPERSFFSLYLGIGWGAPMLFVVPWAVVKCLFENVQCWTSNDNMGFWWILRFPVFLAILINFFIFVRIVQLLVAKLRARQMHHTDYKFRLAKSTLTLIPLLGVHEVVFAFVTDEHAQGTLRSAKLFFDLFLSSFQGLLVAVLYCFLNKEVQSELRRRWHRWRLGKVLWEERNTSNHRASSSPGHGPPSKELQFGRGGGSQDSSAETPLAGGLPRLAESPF
human GLP-1 receptor (GLP-1R), sequence (P43220 24-463): as the sequence (P43220 24-463) above

Regarding `CC[C@H](C)[C@H](NC(=O)[C@H](CC(C)C)NC(=O)[C@H](Cc1ccc(O)cc1)NC(=O)[C@H](CCC(=O)O)NC(=O)[C@@H](NC(=O)[C@H](Cc1ccccc1)NC(=O)[C@H](CCC(=O)O)NC(=O)C(C)(C)NC(=O)[C@H](CCC(N)=O)NC(=O)[C@H](C)NC(=O)[C@H](CCCCNC(=O)COCCOCCNC(=O)COCCOCCNC(=O)CC[C@H](NC(=O)CCCCCCCCCCCCCCCCC(=O)O)C(=O)O)NC(=O)[C@H](CCCCN)NC(=O)[C@H](CC(=O)O)NC(=O)[C@H](CC(C)C)NC(=O)[C@](C)(CC(C)C)NC(=O)[C@@H](NC(=O)[C@H](CO)NC(=O)[C@H](Cc1ccc(O)cc1)NC(=O)[C@H](CC(=O)O)NC(=O)[C@H](CO)NC(=O)[C@@H](NC(=O)[C@H](Cc1ccccc1)NC(=O)[C@@H](NC(=O)CNC(=O)[C@H](CCC(=O)O)NC(=O)C(C)(C)NC(=O)[C@@H](N)Cc1ccc(O)cc1)[C@@H](C)O)[C@@H](C)O)[C@@H](C)CC)[C@@H](C)CC)C(=O)N[C@@H](CCC(=O)O)C(=O)NCC(=O)NCC(=O)N1CCC[C@H]1C(=O)N[C@@H](CO)C(=O)N[C@@H](CO)C(=O)NCC(N)=O` [Example 304] (H-Y[Aib]EGTFTSDYSI[αMeL]LDKK([AEEA-AEEA-γGlu-C18 diacid])AQ[Aib]EFIEYLIEGGPSSG-NH2), the Ki is greater than 855 nM at human Gcg receptor, 0.0499 nM on human GIP receptor and 4.44 nM at human GLP-1R [3]. The EC50 turned out to be 0.191 nM in experiment [1], 0.0296 nM in experiment [2] and 0.561 nM on human GLP-1R [4].
For `CC[C@H](C)[C@H](NC(=O)[C@H](CC(C)C)NC(=O)[C@H](Cc1ccc(O)cc1)NC(=O)[C@H](CCC(=O)O)NC(=O)[C@@H](NC(=O)[C@H](Cc1ccccc1)NC(=O)[C@H](CCC(=O)O)NC(=O)C(C)(C)NC(=O)[C@H](CCC(N)=O)NC(=O)[C@H](C)NC(=O)[C@H](CCCCNC(=O)COCCOCCNC(=O)COCCOCCNC(=O)CC[C@H](NC(=O)CCCCCCCCCCCCCCCCCCC(=O)O)C(=O)O)NC(=O)[C@H](CCCCN)NC(=O)[C@H](CC(=O)O)NC(=O)[C@H](CC(C)C)NC(=O)[C@H](CC(C)C)NC(=O)[C@@H](NC(=O)[C@H](CO)NC(=O)[C@H](Cc1ccc(O)cc1)NC(=O)[C@H](CC(=O)O)NC(=O)[C@H](CO)NC(=O)[C@@H](NC(=O)[C@H](Cc1ccccc1)NC(=O)[C@@H](NC(=O)CNC(=O)[C@H](CCC(=O)O)NC(=O)C(C)(C)NC(=O)[C@@H](N)Cc1ccc(O)cc1)[C@@H](C)O)[C@@H](C)O)[C@@H](C)CC)[C@@H](C)CC)C(=O)N[C@@H](C)C(=O)NCC(=O)NCC(=O)N1CCC[C@H]1C(=O)N[C@@H](CO)C(=O)N[C@@H](CO)C(=O)NCC(=O)N[C@@H](C)C(=O)N1CCC[C@H]1C(=O)N1CCC[C@H]1C(=O)N1CCC[C@H]1C(=O)N[C@@H](CO)C(N)=O` [Example 319] (H-Y[Aib]EGTFTSDYSILLDKK([AEEA-AEEA-γGlu-C20 diacid])AQ[Aib]EFIEYLIAGGPSSGAPPPS-NH2), the Ki at human Gcg receptor was greater than 984 nM; at human GIP receptor, 0.0349 nM; at human GLP-1R [3], 3.61 nM. Also, the EC50 came out at 0.113 nM in experiment [1], 0.054 nM in experiment [2] and 0.657 nM at human GLP-1R [4].

(Values after patent publication US12252524B2, “GIP/GLP1 co-agonist compounds” (Eli Lilly and Company, priority 2018, dated 2025).)
